In US10077436B2, “Beta-glucosidase enzymes for increased biomass saccharification” (Edeniq, Inc., priority 2013, dated 2018) one finds Ki and Km/Ki data, which are given here for one compound.

This assay concerns the target S-BG (Novozymes SP188 from Sigma), commercial beta-glucosidase. As to the kind of experiment: BG kinetics, cellobiose hydrolysis assay (HPLC) with glucose as competitive inhibitor, S-BG. It is filed as biochemical. The settings on record: pH 4.8, 50° C. From the text: The kinetic properties of beta glucosidase are important for cellulosic hydrolysis, since in commercial situations a wide range of substrate concentrations and different product inhibition conditions will be encountered. In this example, a Michaelis-Menten kinetics model was used to describe BG kinetics. To determine these kinetic properties, BG activity assays using standard substrates pNPG and cellobiose were employed. yEdQ745-BG (wild type) and yEdQ885-BG (improved), were compared with two commercial BGs, A-BG (Accellerase®) BG from Dupont) and S-BG (Novozymes SP188 from Sigma).
BG activity assay using cellobiose is the other standard assay to measure BG or cellobiase activity, which utilizes hydrolysis of cellobiose by cellobiase into two molecules of glucose, the last step of enzymatic hydrolysis of cellulose. One cellobiase unit (commonly termed as CBU) is defined as the amount of enzyme that converts […] of cellobiose or produces 2 μmol of glucose per min. Briefly, to determine BG activity, 25 μL of diluted enzyme in 50 mM citrate buffer (pH 4.8) equilibrated to 50° C. was mixed with 25 μL cellobiose (or cellobiose/glucose mixture for the kinetic study) to start the reaction. The mixture was incubated at 50° C. for 10 min, and the reaction was terminated by incubating the mixture at 99° C. for 5 min. Different methods are available to measure the glucose produced in the assays. For the kinetic study, HPLC was used.
To determine kinetic properties using cellobiose substrate, duplicate assays with cellobiose concentrations ranging from 0.47 to 15 mM and glucose concentrations of 0, 0.9, 4.5, 6.75, and 8.1 (for A-BG) or 9 (for all the other three BGs) g/L were performed. As for pNPG substrate, the range of cellobiose substrate concentration was chosen to show detectable activity at the lowest substrate concentration and saturation stage at high substrate concentration. However, in contrast to the pNPG substrate, when there was still some activity left at glucose concentration up to 36 g/L, most of the BG activity was lost at an inhibitor level of 9 g/L when cellobiose substrate was used. […] It should also be noted that colorimetric glucose assay cannot provide activity results for inhibitory glucose levels above 0.9 g/L after several trials. Therefore, HPLC measurements were used for kinetic studies using cellobiose substrate. It should be pointed out that the HPLC method may not be sensitive enough either to capture BG activity under more severe glucose inhibition conditions than 9 g/L of glucose. Moreover, theoretically there are two ways to measure BG activity by HPLC when cellobiose is used as the substrate: tracking consumption of cellobiose or tracking production of glucose. However, as shown by the example of one set of results from S-BG in Table 3, tracking glucose is problematic due to measurement sensitivity. In Table 3, A % is defined as follows and is an indicator of measurement sensitivity, since the difference of substrate or product concentrations before and after reaction was used to determine BG activity. Δ%=(start conc. of cellobiose−end conc. of cellobiose)/start conc. of cellobiose×100% (3) Δ%=(end conc. of glucose−start conc. of glucose)/start conc. of glucose×100% (4)
With increasing inhibitor (glucose) level, Δ% is decreasing. For the case of tracking glucose, Δ% was too small to be reliable when 4.5 g/L of glucose was added at the beginning. […] Thus, the approach of tracking cellobiose was chosen due to its higher detection sensitivity. In the substrate range used to determine kinetic parameters (0.47 to 30 mM for A-BG and 0.47 to 15 mM for the other three BGs), the detection sensitivity is reasonable.
A similar simultaneous nonlinear regression method based on the competitive inhibition equation expressed in Equation (1) was used to determine kinetic parameters of BG towards cellobiose. […]

Usually Ki stands for the equilibrium dissociation constant of an inhibitor or competing ligand from its target. Read a low Ki as tighter binding. Take `OC[C@H]1OC(O)[C@H](O)[C@@H](O)[C@@H]1O` (some centres unmarked) [glucose]: the Ki (cellobiose substrate, competitive inhibition) is 3.13 ± 0.76 mM. Under “inhibitor influence, Km for cellobiose / Ki for glucose”, the Km/Ki is recorded as 0.51.
